Measurements from patent US20240425484A1, “INHIBITORS OF TYK2” (Atomwise Inc., priority 2023, published 2024).

Tests used:
[1] = Mouse pharmacokinetic study, oral administration; format: in vivo; conditions: male, mouse plasma, PO at 5 mg/kg; for half-life: read-out: Half-life t1/2; for Cmax: read-out: Maximum plasma concentration Cmax; for AUC(0-inf): read-out: Total systemic exposure AUCinf
Experimental: The following example describes the methods used to evaluate the pharmacokinetics of TYK2 inhibitors in vivo following dosing of a compound of the invention.
The pharmacokinetics of test compounds were evaluated in either male CD-1 mice or male C57BL/6 mice when administered by oral gavage and IV bolus injection. The animals were allowed free access to food and water before administration. The plasma samples were analyzed by LC-MS/MS and the concentration of test compound at each time point was determined by linear regression. Pharmacokinetic parameters were calculated from the plasma concentrations by non-compartmental modeling using WinNonlin 8.2.
Oral composition. To prepare a pharmaceutical composition for oral delivery, the test articles described herein were dissolved in DMSO and then mixed with necessary volume of PEG400 followed by 0.9% sterile saline or 5% dextrose in water or 5% Kolliphor HS 15 in saline to provide the final concentrations of 0.5 mg/mL or 1 mg/mL (Table 8). The resultant mixtures were suitable for oral administration.
The PK parameters measured in mouse plasma after treatment with TYK2 inhibitor compounds via PO (oral administration) at 5 mg/kg are summarized below in Tables 9-11.

[2] = molecular target: T1, TYK2-JH2 (Homo sapiens, UniProt P29597); assay: TYK2-JH2 HTRF binding assay (ligand efficiency); conditions: calculated (Equation 1) from IC50 of the TYK-JH2 binding assay
T1 construct: TYK JH2 enzyme mix (ChemPartner: CP20210818A-BV); purchased ChemPartner CP20210818A-BV
Experimental: The following example describes the TYK2-JH2 HTRF binding assay used to determine the ligand efficiency of the TYK2 inhibitors.
To calculate ligand efficiency, Equation 1 is applied: […]
in which IC50 comes from the binding assay used to determine compound potency.
TYK JH2 enzyme mix (ChemPartner: CP20210818A-BV), tracer (ChemPartner: CP-0029472-051) and mAb Anti-6HIS Tb cryptate Gold (Cisbio: Cat No. 61HI2TLA) mix were prepared in assay buffer (10 mM MgCl2, 20 mM HEPES pH 7.5, 0.01% Triton X-100, 1 mM DTT). Compounds diluted in DMSO (Final Concentrations 0.1 to 0.000005 [μM]) and enzyme mix (0.5 nM Final Concentration) were added to 384 well plates, briefly centrifuged and incubated at room temperature for 10 minutes. After incubation, tracer mix (Tracer-35 nM final concentration); (MAb Anti-6HIS Tb cryptate Gold-0.5X final)) was added, briefly centrifuged then incubate at room temperature 60 minutes. After incubation, plates were read by Envision TR-FRET (Ex340/Em495/520) protocol (PerkinElmer-Envision 2104 multilabel plate reader).

T1 sequence (P29597 589-875 limits assumed): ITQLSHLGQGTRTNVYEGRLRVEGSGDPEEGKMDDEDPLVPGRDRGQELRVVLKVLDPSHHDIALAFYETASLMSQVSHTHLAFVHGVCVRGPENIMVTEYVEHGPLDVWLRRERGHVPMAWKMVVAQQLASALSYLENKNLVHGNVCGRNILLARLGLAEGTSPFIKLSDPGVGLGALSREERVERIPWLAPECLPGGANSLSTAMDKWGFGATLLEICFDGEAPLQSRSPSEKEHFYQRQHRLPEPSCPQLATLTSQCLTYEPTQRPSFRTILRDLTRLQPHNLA

| Compound | half-life [1] [h] | Cmax [1] [ng/mL] | AUC(0-inf) [1] [ng·h/mL] | Ligand Efficiency [2] |
| --- | --- | --- | --- | --- |
| CS(=O)(=O)c1cccnc1Nc1cc(Nc2ccc3c(n2)CCCC3N2CC3(COC3)C2)ncn1 (stereo in doubt) [Compound 5, (R)—N^4-(5-(2-oxa-6-azaspiro[3.3]heptan-6-yl)-5,6,7,8-tetrahydroquinolin-2-yl)-N^6-(3-(methylsulfonyl)pyridin-2-yl)pyrimidine-4,6-diamine] | > 1.5 | > 1500 | > 2000 |  |
| CC(c1ccc(Nc2cc(Nc3ncccc3S(C)(=O)=O)ncn2)nc1C(F)(F)F)N1CC2(COC2)C1 (stereo in doubt) [Compound 11, (R)—N^4-(5-(1-(2-oxa-6-azaspiro[3.3]heptan-6-yl)ethyl)-6-(trifluoromethyl)pyridin-2-yl)-N^6-(3-(methylsulfonyl)pyridin-2-yl)pyrimidine-4,6-diamine] | > 1.5 | 800 to 1500 | > 2000 |  |
| Cc1nc(Nc2cc(Nc3ncccc3S(C)(=O)=O)ncn2)ccc1[C@H](C)N1CC2(COC2)C1 (stereo in doubt) [Compound 12, N^4-(5-(1-(2-oxa-6-azaspiro[3.3]heptan-6-yl)ethyl)-6-methylpyridin-2-yl)-N^6-(3-(methylsulfonyl)pyridin-2-yl)pyrimidine-4,6-diamine] | < 1 | > 1500 | 1000 to 2000 | ††† (†††: >0.39) |
| Cc1nc(Nc2cc(Nc3ncccc3S(C)(=O)=O)ncn2)ccc1NC1(C)COC1 [Compound 6, N^4-(6-methyl-5-((3-methyloxetan-3-yl)amino)pyridin-2-yl)-N^6-(3-(methylsulfonyl)pyridin-2-yl)pyrimidine-4,6-diamine] | < 1 | > 1500 | > 2000 | ††† (†††: >0.39) |
| C[C@H]1CN(C2CC2)CCN1c1ccc(Nc2cc(Nc3ncccc3S(C)(=O)=O)ncn2)nc1 [Compound 8, (S)—N^4-(5-(4-cyclopropyl-2-methylpiperazin-1-yl)pyridin-2-yl)-N^6-(3-(methylsulfonyl)pyridin-2-yl)pyrimidine-4,6-diamine] | > 1.5 | 800 to 1500 | 1000 to 2000 | ††† (†††: >0.39) |
| Cc1ccnc(Nc2cc(Nc3ccccc3S(C)(=O)=O)ncn2)c1 [Compound 44, N^4-(4-methylpyridin-2-yl)-N^6-(2-(methylsulfonyl)phenyl)pyrimidine-4,6-diamine] | > 1.5 | < 800 | < 1000 | ††† (†††: >0.39) |
| Cc1cccc(Nc2cc(Nc3cccnc3S(C)(=O)=O)ncn2)n1 [Compound 59, N^4-(6-methylpyridin-2-yl)-N^6-(2-(methylsulfonyl)pyridin-3-yl)pyrimidine-4,6-diamine] |  |  |  | ††† (†††: >0.39) |
| Cc1cccc(Nc2cc(Nc3ccncc3S(C)(=O)=O)ncn2)n1 [Compound 60, N^4-(6-methylpyridin-2-yl)-N^6-(3-(methylsulfonyl)pyridin-4-yl)pyrimidine-4,6-diamine] |  |  |  | ††† (†††: >0.39) |
| Cc1cccc(Nc2cc(Nc3cnccc3C(N)=O)ncn2)n1 [Compound 61, 3-((6-((6-methylpyridin-2-yl)amino)pyrimidin-4-yl)amino) isonicotinamide] |  |  |  | ††† (†††: >0.39) |
| Cc1ccnc(Nc2cc(Nc3ccccc3P(C)(C)=O)ncn2)c1 [Compound 63, N^4-(2-(dimethylphosphoryl)phenyl)-N^6-(4-methylpyridin-2-yl)pyrimidine-4,6-diamine] |  |  |  | ††† (†††: >0.39) |
| CS(=O)(=O)c1cccnc1Nc1cc(Nc2ncccc2F)ncn1 [Compound 64, N^4-(3-fluoropyridin-2-yl)-N^6-(3-(methylsulfonyl)pyridin-2-yl)pyrimidine-4,6-diamine] |  |  |  | ††† (†††: >0.39) |
| COc1ccnc(Nc2cc(Nc3cccc(C)n3)ncn2)c1S(C)(=O)=O [Compound 65, N^4-(4-methoxy-3-(methylsulfonyl)pyridin-2-yl)-N^6-(6-methylpyridin-2-yl)pyrimidine-4,6-diamine] |  |  |  | ††† (†††: >0.39) |
| Cn1ccc(Nc2cc(Nc3ccccc3S(C)(=O)=O)ncn2)n1 [Compound 66, N^4-(1-methyl-1H-pyrazol-3-yl)-N^6-(2-(methylsulfonyl)phenyl)pyrimidine-4,6-diamine] |  |  |  | ††† (†††: >0.39) |
| Cn1ccc(Nc2cc(Nc3ccccc3C(N)=O)ncn2)n1 [Compound 67, 2-((6-((1-methyl-1H-pyrazol-3-yl)amino)pyrimidin-4-yl)amino)benzamide] |  |  |  | ††† (†††: >0.39) |
| Cc1cccnc1Nc1cc(Nc2ccccc2C(N)=O)ncn1 [Compound 68, 2-((6-((3-methylpyridin-2-yl)amino)pyrimidin-4-yl)amino)benzamide] |  |  |  | ††† (†††: >0.39) |
| CS(=O)(=O)c1ccccc1Nc1cc(NC(=O)C2CC2)ncn1 [Compound 69, N^4-(cyclopropylcarbonyl)-N^6-(2-(methylsulfonyl)phenyl)pyrimidine-4,6-diamine] |  |  |  | ††† (†††: >0.39) |
| COc1ccc(Nc2cc(NC(=O)C3CC3)ncn2)c(C(N)=O)c1 [Compound 70, 2-((6-(cyclopropanecarboxamido)pyrimidin-4-yl)amino)-5-methoxy benzamide] |  |  |  | ††† (†††: >0.39) |
| Cc1cccc(Nc2cc(Nc3ncccc3CS(C)(=O)=O)ncn2)n1 [Compound 71, N^4-(6-methylpyridin-2-yl)-N^6-(3-((methylsulfonyl)methyl)pyridin-2-yl)pyrimidine-4,6-diamine] |  |  |  | ††† (†††: >0.39) |
| Cn1cc(-c2ccnc(Nc3cc(Nc4ccc(NC5(C)COC5)cn4)ncn3)c2S(C)(=O)=O)cn1 [Compound 72, N^4-(4-(1-methyl-1H-pyrazol-4-yl)-3-(methylsulfonyl)pyridin-2-yl)-N^6-(5-(3-methyloxetan-3-ylamino)pyridin-2-yl)pyrimidine-4,6-diamine] |  |  |  | † (†: <0.37) |
| CC1(Nc2ccc(Nc3cc(Nc4ncccc4S(C)(=N)=O)ncn3)nc2)COC1 (centres unmarked) [Compound 73, N^4-(5-((3-methyloxetan-3-yl)amino)pyridin-2-yl)-N^6-(3-(S-methylsulfonimidoyl)pyridin-2-yl)pyrimidine-4,6-diamine] |  |  |  | ††† (†††: >0.39) |
| CC1(Nc2cnc(Nc3cc(Nc4ncccc4S(C)(=O)=O)ncn3)cn2)COC1 [Compound 74, N^4-(5-(3-methyloxetan-3-ylamino)pyrazin-2-yl)-N^6-(3-(methylsulfonyl)pyridin-2-yl)pyrimidine-4,6-diamine] |  |  |  | ††† (†††: >0.39) |
| CC(c1ccc(Nc2ncnc(Nc3ncccc3S(C)(=O)=O)c2F)nc1)N1CC2(COC2)C1 (centres unmarked) [Compound 75, N^4-(5-(1-(2-oxa-6-azaspiro[3.3]heptan-6-yl)ethyl)pyridin-2-yl)-5-fluoro-N^6-(3-(methylsulfonyl)pyridin-2-yl)pyrimidine-4,6-diamine] |  |  |  | † (†: <0.37) |
| COc1ccnc(Nc2cc(Nc3ccc(C(C)N4CC5(COC5)C4)cn3)ncn2)c1S(C)(=O)=O (centres unmarked) [Compound 76, N^4-(5-(1-(2-oxa-6-azaspiro[3.3]heptan-6-yl)ethyl)pyridin-2-yl)-N^6-(4-methoxy-3-(methylsulfonyl)pyridin-2-yl)pyrimidine-4,6-diamine] |  |  |  | † (†: <0.37) |
| CC(c1ccc(Nc2cc(Nc3ncc(C4COC4)cc3S(C)(=O)=O)ncn2)nc1)N1CC2(COC2)C1 (centres unmarked) [Compound 78, N^4-(5-(1-(2-oxa-6-azaspiro[3.3]heptan-6-yl)ethyl)pyridin-2-yl)-N^6-(3-(methylsulfonyl)-5-(oxetan-3-yl)pyridin-2-yl)pyrimidine-4,6-diamine] |  |  |  | † (†: <0.37) |
| CS(=O)(=O)c1ccccc1Nc1cc(Nc2ccc(NC3COC3)cn2)ncn1 [Compound 80, N^4-(2-(methylsulfonyl)phenyl)-N^6-(5-(oxetan-3-ylamino)pyridin-2-yl)pyrimidine-4,6-diamine] |  |  |  | † (†: <0.37) |
